The text below walks through data of PMC10056348, “Photocaged Histone Deacetylase Inhibitors as Prodrugs in Targeted Cancer Therapy” (Pharmaceuticals, 2023).

SMILES strings stand for the structures.

The target of one data set is T1, human recombinant HDAC1 (Homo sapiens, UniProt Q13547).
T1 construct: purchased BPS Bioscience Inc. 50051
The experiment in a line: Fluorogenic HDAC enzyme inhibition assay (ZMAL substrate), HDAC1. The class given is biochemical. As for the experimental part: First, predilutions (100-fold final assay concentration) of test compounds or reference inhibitors were prepared. To this end, 3-fold serial dilutions of the respective DMSO stock solutions were prepared in DMSO using clear V-bottom 96-well microplates (Greiner Bio-One, Greiner AG, Kremsmünster, Austria). Predilutions designated for photolysis were irradiated for 10 min using the UV reactor described above. […] Next, 5.0 µL of these serial dilutions in assay buffer were transferred into 96-well microplates (OptiPlate-96 Black, PerkinElmer, Waltham, MA, USA). […] Fluorescence (excitation: 355 nm, emission: 460 nm) was measured using a FLUOstar OPTIMA microplate reader (BMG LABTECH GmbH, Ortenberg, Germany). IC50 values were determined by generating normalized dose–response curves using the built-in “log(inhibitor) vs. response (three parameters)” equation provided by GraphPad Prism (GraphPad Prism 9.0, San Diego, CA, USA). All compounds were tested in duplicates; reported mean IC50 values, including standard deviation, were calculated from at least two independent experiments.

For data set [1], the system named is acetyl-α-tubulin in MV-3 cells. The experiment in a line: Immunoblot of acetyl-α-tubulin (marker of HDAC6 inhibition). The settings on record: 24 h, 3.1 µM. The class given is cell-based. The protocol:
MV-3 cells were seeded to cell culture flasks and cultured for 48 h. Aliquots of the DMSO stock solution (10 mM) designated for photolysis were irradiated for 10 min with the UV reactor (see Section 4.3). The cells were treated with the stock solutions, processed with or without irradiation, of the indicated concentration or vehicle (DMSO) for 24 h. Cell lysis was performed with Cell Extraction Buffer (10 mM Tris, pH 7.4, 100 mM NaCl, 1 mM EDTA, 1 mM EGTA, 1 mM NaF, 20 mM Na4P2O7, 2 mM Na3VO4, 1% Triton™ ×-100, 10% glycerol, 0.1% SDS, 0.5% deoxycholate; Catalog# FNN0011, Thermo Fisher Scientific Inc., Waltham, MA, USA) and addition of Halt Protease Inhibitor Cocktail (100×) (Catalog# 78429, Life Technologies GmbH Carlsbad, CA, USA) and phenylmethanesulfonyl fluoride (Catalog# 10837091001, Sigma-Aldrich, St. Louis, MO, USA) according to manufacturer instructions. Protein content was determined by Pierce™ BCA Protein Assay Kit (Catalog# 23225, Thermo Fisher Scientific Inc., Waltham, MA, USA) according to manufacturer guidelines. Samples were denatured by Laemmli 2× Concentrate (Catalog# S3401-10VL, Sigma-Aldrich, St. Louis, MO, USA), and Precision Plus Protein Unstained Standard was used as molecular weight marker (Catalog# 1610363, Bio-Rad, Hercules, CA, USA). SDS-PAGE was performed with 10% Mini-PROTEAN TGX Stain-Free Gel at 200 V for 50 min (Catalog# 458035, Bio-Rad, Hercules, CA, USA). Afterwards, proteins were transferred with the Trans-Blot Turbo Transfer System (Catalog# 1704150, Bio-Rad, Hercules, CA, USA) to Immobilon-FL PVDF membranes (Catalog# IPFL00005, Millipore Merck, Burlington, MA, USA) at 1.0 A for 30 min and incubated with 5% milk-powder solution for 1 h at room temperature under slight agitation. Subsequently, the membranes were incubated with anti-acetyl-histone H3 (Catalog# 9677S, Cell Signaling Technology, Denver, MA, USA), anti-acetyl-α-tubulin (Catalog#5335, Cell Signaling Technology, Denver, MA, USA), and anti-GAPDH (Catalog# T0004, Affinity Biosciences, Cincinnati, OH, USA) in 1:1000–1:10000 dilutions at 4 °C, overnight. […]

Another data set relates to HepG2 cancer cell line. More on the design: method as in PMID 30664827. The settings on record: cited from earlier work.
Data set [2] relates to asexual blood stage and liver stage parasites. Further details: method as in PMID 30664827. As to conditions: cited from earlier work.
Data set [3] has as its system acetyl-histone H3 in MV-3 cells. Briefly: Immunoblot of acetyl-histone H3 (marker of HDAC1-3 inhibition). As to conditions: 24 h, 3.1 µM, after UV irradiation (365 nm, 10 min). The class given is cell-based. The protocol:
MV-3 cells were seeded to cell culture flasks and cultured for 48 h. Aliquots of the DMSO stock solution (10 mM) designated for photolysis were irradiated for 10 min with the UV reactor (see Section 4.3). The cells were treated with the stock solutions, processed with or without irradiation, of the indicated concentration or vehicle (DMSO) for 24 h. Cell lysis was performed with Cell Extraction Buffer (10 mM Tris, pH 7.4, 100 mM NaCl, 1 mM EDTA, 1 mM EGTA, 1 mM NaF, 20 mM Na4P2O7, 2 mM Na3VO4, 1% Triton™ ×-100, 10% glycerol, 0.1% SDS, 0.5% deoxycholate; Catalog# FNN0011, Thermo Fisher Scientific Inc., Waltham, MA, USA) and addition of Halt Protease Inhibitor Cocktail (100×) (Catalog# 78429, Life Technologies GmbH Carlsbad, CA, USA) and phenylmethanesulfonyl fluoride (Catalog# 10837091001, Sigma-Aldrich, St. Louis, MO, USA) according to manufacturer instructions. Protein content was determined by Pierce™ BCA Protein Assay Kit (Catalog# 23225, Thermo Fisher Scientific Inc., Waltham, MA, USA) according to manufacturer guidelines. Samples were denatured by Laemmli 2× Concentrate (Catalog# S3401-10VL, Sigma-Aldrich, St. Louis, MO, USA), and Precision Plus Protein Unstained Standard was used as molecular weight marker (Catalog# 1610363, Bio-Rad, Hercules, CA, USA). […]

The nature of data set [4]: Photo-uncaging efficiency (HPLC after irradiation at 365 nm). The class given is physicochemical. As to conditions: 10 min. As for the experimental part: Photolysis (photo-uncaging) of photocaged HDACi prodrugs was performed at room temperature using a UVP CL-1000 Crosslinker (Analytik Jena GmbH, Jena, Germany) equipped with five UV-A tubes (F8T5/BL368; λmax = 365 nm; Analytik Jena GmbH, Jena, Germany). Hereafter, this entire experimental set-up will be referred to as the “UV reactor”.
For the photo-uncaging efficiency testing, 10 µL of a 1.0 mM DMSO solution of the respective compound was irradiated for 10 min using the UV reactor described above. Subsequently, 90 µL acetonitrile was added, and the samples were analyzed via HPLC. The amount of photo-cleaved HDACi was determined by comparison with a five-point calibration curve of the respective parent inhibitor, using HPLC/UV detection at an appropriate wavelength (area under the curve; area mAu*min).
2. Photouncaging Experiments
Photolysis (photouncaging) of photocaged HDACi prodrugs was performed at room temperature using an UVP CL-1000 Crosslinker (Analytik Jena GmbH, Jena, Germany) equipped with five UV-A tubes (F8T5/BL368; λmax = 365 nm; Analytik Jena GmbH, Jena, Germany). Hereafter, this entire experimental set-up will be referred to as the "UV-reactor".
For the deprotection experiments 10 µL of a 1.0 mM DMSO-solution of the respective compound were irradiated for 10 min using the UV-reactor described above. Subsequently, 90 µL acetonitrile were added and the samples were analyzed via HPLC. The amount of photo-cleaved HDACi was determined by comparison with a five-point calibration curve of the respective parent inhibitor using HPLC/UV detection at an appropriate wavelength (area under the curve; area mAu*min).
Figure S5. Calibration curve of DDK-137 (I).

Setting [5] is: after UV irradiation (365 nm, 10 min).

T1 sequence (Q13547 whole entry): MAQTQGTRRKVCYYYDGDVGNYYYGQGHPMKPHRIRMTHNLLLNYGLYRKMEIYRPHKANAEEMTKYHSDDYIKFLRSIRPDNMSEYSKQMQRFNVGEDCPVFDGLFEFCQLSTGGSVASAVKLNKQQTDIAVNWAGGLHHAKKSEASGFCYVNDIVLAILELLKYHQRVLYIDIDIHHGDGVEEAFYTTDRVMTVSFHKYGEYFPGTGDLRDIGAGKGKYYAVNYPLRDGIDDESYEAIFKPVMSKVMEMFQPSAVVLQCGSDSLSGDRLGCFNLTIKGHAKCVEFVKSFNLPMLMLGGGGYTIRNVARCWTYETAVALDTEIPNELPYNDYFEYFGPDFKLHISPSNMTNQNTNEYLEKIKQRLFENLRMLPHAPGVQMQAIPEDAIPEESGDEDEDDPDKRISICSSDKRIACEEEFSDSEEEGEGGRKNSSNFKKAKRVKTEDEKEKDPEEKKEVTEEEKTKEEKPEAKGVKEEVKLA

With `CN(C)c1ccc(C(=O)N(CC(=O)NCc2ccccc2)Cc2ccc(C(=O)NO)cc2)cc1` [I, N-[2-(benzylamino)-2-oxoethyl]-4-(dimethylamino)-N-[4-(hydroxycarbamoyl)-benzyl]-benzamide], the IC50 at human recombinant HDAC1 (without UV irradiation) stood at 12.7 ± 0.7 nM. Besides, the “level of acetylated α-tubulin” value in data set [1] (without UV irradiation) is “strong hyperacetylation”. For the same molecule, the “antiproliferative activity against HepG2” value in the data set on HepG2 cancer cell line is listed as “submicromolar antiproliferative activity”. Further, the antiplasmodial activity result in data set [2] is reported as “potent antiplasmodial activity”.

As for `COc1cc(CONC(=O)c2ccc(CN(CC(=O)NCc3ccccc3)C(=O)c3ccc(N(C)C)cc3)cc2)c([N+](=O)[O-])cc1OC` [pc-I, N-[2-(Benzylamino)-2-oxoethyl]-N-(4-{[(4,5-dimethoxy-2-nitrobenzyl)oxy]carbamoyl}benzyl)-4-(dimethylamino)benzamide], the values for the half-maximal inhibitory concentration (IC50) on human recombinant HDAC1 (setting [5]) and on human recombinant HDAC1 (without UV irradiation) were 6.8 ± 1.2 nM and 824 ± 32.2 nM, respectively. Moreover, at human recombinant HDAC1 (irradiated vs non-irradiated), the “increase of HDAC1 inhibition upon irradiation with UV light” value is recorded as 121 fold. Besides, the “level of acetylated α-tubulin” value in data set [1] (setting [5]) was “increased level of acetyl-α-tubulin”; in data set [1] (without UV irradiation), “no increased levels of acetylated α-tubulin”. In addition, the “level of acetyl-histone H3” value in data set [3] is “higher amount of acetyl-histone-H3”. Besides, the “yield of photo-released parent inhibitor” value in data set [4] (DMSO, HPLC with calibration curve) was found to be 82%. Further, the “concentration of photo-released parent inhibitor after irradiation” value in data set [4] (initial concentration 100 µM) was 81.5 µM.
